Patent US10912780B2, “Heterocyclic compounds useful as anti-bacterial agents and method for production thereof” (Bugworks Research, Inc., priority 2017, dated 2021)
Converted amounts (≈) assume the structure as drawn. “And” between values parts separate entries of the source, which are not always exact repeats. Equal values may be shown once.

Legend:
[1] = molecular target: E. coli DNA gyrase (Escherichia coli, UniProt P0AES4+P0AES6); experiment: biochemical; settings: supercoiling assay
[2] = test system: E. coli clinical strains; experiment: Antibacterial susceptibility studies (MIC50 and MIC90) with clinical strains, CLSI guidelines; type: cell-based
[3] = test system: K. pneumoniae clinical strains; experiment: as above; type: cell-based
[4] = test system: P. aeruginosa [ATCC27853]; experiment: Neutropenic lung infection model in rat; type: in vivo; settings: for MEAN ± SD (Log 10 CFU/g Lung) / Mean Log 10CFU/g lung reduction (wrt 4 h PI control 5.78 Log10CFU/g lung) / Log 10 CFU/g Lung: neutropenic rat, 24 h post infection; for Log 10 CFU/g Lung: individual animals
Description: The purpose of this study was to evaluate the efficacy of example 15 against P. aeruginosa [ATCC27853], following single dose intravenous infusion doses of 10, 30 and 100 mg/kg in a neutropenic lung infection model in rats
Prior to the start of the infection process, all animals were divided into different groups. All grouped cages of animals were carried to a procedure room, close to a biological safety cabinet. All infections were conducted in a biological safety cabinet, with appropriate personnel protection. Animals were placed into an induction chamber and anaesthesia was induced by exposing the animals to 3-5% Isoflurane in an oxygen flow set at approximately (˜) 1 liter per minute (LPM). Once the animals were in a sufficiently deep plane of anaesthesia as monitored by pedal reflex, they were removed and infected (2). […] A gentle mixing of inoculum between two animals was followed for uniform distribution.
The IV formulation vehicle used for example 15 was 10% of L-ascorbic acid in fresh MilliQ water (w/v) with pH adjusted to ˜4.0 with 1N Sodium hydroxide solution (w/v), and the dose volume was 10 mL/kg. Meropenem was formulated in saline. […] The dose levels of the test Example 15 were 10, 30 and 100 mg/kg.
All the animals in groups were sacrificed at 24 h post infection, as specified in experimental design, by an overdose of CO2 in an appropriate exposure chamber. The group 1 animals were sacrificed at 4 hrs post infection. The euthanized animals were dipped into 70% ethanol for surface decontamination. Entire Lung was aseptically isolated, weighed and placed into 1 mL of sterile CSDB broth, and homogenized (Omni Tip (220 V hand held)). Serial ten-fold dilutions of the lungs homogenates were prepared in sterile CSD broth and 0.05 mL of four dilutions for each tissue was plated onto CSDA agar plates. Bacterial colonies were enumerated following overnight incubation at 37° C. Bacterial densities were estimated as Log10 CFU/g lung. The Mean±SD Log10 CFU/g lung was estimated in each group. Significant differences between group means and control were analyzed by one way ANOVA, followed by a Dunnett's multiple comparison test, using Graphpad Prism at 95% confidence levels.

[5] = Stability of IV formulation at room temperature; type: physicochemical; settings: IV formulation in 10% L-ascorbic acid, pH~4
Description: Procedure: Weighed appropriate amount of the Example 15 to be tested and dissolved in 1 ml of the 10% ascorbic acid solution. (Vortex for a few seconds if the compound doesn't dissolve instantly). Sonicated the compound solution at room temperature for 5 minutes using a bath sonicator to obtain a visually clear solution. The above prepared solution was pH adjusted to pH˜4 with 1N NaOH solution (w/v) with sonication (final Formulation pH˜4).

[6] = test system: Enterococcus faecalis ATCC 29212; experiment: Minimum Inhibitory Concentration (MIC) in LB media; type: cell-based; settings: Enterococcus faecalis, ATCC29212, read-out: Minimum Inhibitory Concentration E. faecalis ATCC 29212
From the text: (§1) The compounds of Formula (I) are of interest due to their potent antibacterial effects. The ability of the invention compounds disclosed herein to achieve an antibacterial effect may be evaluated with regard to their ability to inhibit the growth of bacterial species like Escherichia coli ATCC 25922, Staphylococcus aureus ATCC 29213, Klebsiella pneumoniae ATCC 13883, Acinetobacter baumannii ATCC 19606, Pseudomonas aeruginosa ATCC 27853, Enterococcus faecalis ATCC 29212 and Enterococcus faecalis ATCC 29212 using an assay based on the following Minimum Inhibitory Concentration (MIC) protocol:
(§2) The medium sterility is checked by incubating at 37° C. for a period of 48 h.
(§3) Bacterial cultures that are stored as glycerol stocks at −80° C. are sub cultured on LB agar plates to obtain isolated colonies. A single colony of each strain is cultured in LB broth. The cultures are incubated at 37 C, 200 rpm till they reach an optical density (OD at 600 nm) of 0.8 to 1. […] Test compounds are dissolved in dimethyl sulfoxide (DMSO) to a stock concentration of 4 mg/ml. A twofold dilution series of this DMSO stock is prepared in a 96 well V bottom microtitre plate from rows A to H. A 3 μL volume of these dilutions are transferred to a 96-well flat bottom microtitre assay plate. Controls to monitor the effects of DMSO and media sterility are included. Each well is inoculated with 150 μL of the above diluted culture. The plates are incubated at 37° C. overnight in a humidified incubator. The following morning, the plates are read using a Spectrophotometer at 600 nm wavelength. […] The antibacterial activity (MIC) determined against representative Gram positive (S. aureus, E. faecalis) and Gram negative (E.coli, -P. aeruginosa and A. baumannii) pathogen were reported Table 1.

[7] = test system: Staphylococcus aureus ATCC 29213; experiment: Minimum Inhibitory Concentration (MIC) in LB media; type: cell-based; settings: Staphylococcus aureus, ATCC29213, read-out: Minimum Inhibitory Concentration S. aureus ATCC 29213
From the text: as §1, §2, §3

[8] = test system: Klebsiella pneumoniae ATCC 13883; experiment: Minimum Inhibitory Concentration (MIC) in LB media; type: cell-based; settings: Klebsiella pneumoniae, ATCC13883, read-out: Minimum Inhibitory Concentration K. pneumoniae ATCC 13883
From the text: as §1, §2, §3

[9] = test system: Escherichia coli ATCC 25922; experiment: Minimum Inhibitory Concentration (MIC) in LB media; type: cell-based; settings: Escherichia coli, ATCC25922, read-out: Minimum Inhibitory Concentration E. coli ATCC 25922
From the text: as §1, §2, §3

[10] = test system: Pseudomonas aeruginosa ATCC 27853; experiment: Minimum Inhibitory Concentration (MIC) in LB media; type: cell-based; settings: Pseudomonas aeruginosa, ATCC27853, read-out: Minimum Inhibitory Concentration P. aeruginosa ATCC 27853
From the text: as §1, §2, §3

Chain of E. coli DNA gyrase (P0AES4 whole entry, one chain of several): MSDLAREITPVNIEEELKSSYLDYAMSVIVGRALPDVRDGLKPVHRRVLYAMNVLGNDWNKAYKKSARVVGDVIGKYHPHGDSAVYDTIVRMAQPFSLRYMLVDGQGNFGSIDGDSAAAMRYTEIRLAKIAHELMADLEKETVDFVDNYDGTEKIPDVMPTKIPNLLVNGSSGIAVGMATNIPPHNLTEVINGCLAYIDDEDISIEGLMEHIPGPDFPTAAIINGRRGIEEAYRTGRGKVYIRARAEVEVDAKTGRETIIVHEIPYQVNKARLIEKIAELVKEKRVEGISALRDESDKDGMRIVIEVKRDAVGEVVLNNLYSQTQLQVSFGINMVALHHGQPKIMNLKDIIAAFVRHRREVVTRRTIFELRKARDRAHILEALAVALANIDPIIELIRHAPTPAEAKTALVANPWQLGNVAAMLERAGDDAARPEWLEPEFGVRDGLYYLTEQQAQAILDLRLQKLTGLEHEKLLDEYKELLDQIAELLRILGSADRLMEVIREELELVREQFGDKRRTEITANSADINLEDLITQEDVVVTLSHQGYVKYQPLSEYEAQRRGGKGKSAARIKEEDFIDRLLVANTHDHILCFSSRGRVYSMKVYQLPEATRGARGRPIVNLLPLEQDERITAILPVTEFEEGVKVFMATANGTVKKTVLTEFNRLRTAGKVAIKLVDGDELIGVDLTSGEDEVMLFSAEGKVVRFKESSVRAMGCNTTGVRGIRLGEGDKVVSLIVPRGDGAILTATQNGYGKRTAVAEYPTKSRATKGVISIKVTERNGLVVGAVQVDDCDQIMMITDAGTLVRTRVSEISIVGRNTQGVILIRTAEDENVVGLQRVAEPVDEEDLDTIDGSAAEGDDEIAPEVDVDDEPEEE

In the case of Cn1c(=O)ccc2ccc(F)c(CCNC[C@H]3CN(c4cnc5c(n4)NC(=O)CO5)C(=O)O3)c21 [Example 15, (S)-6-(5-(((2-(7-fluoro-1-methyl-2-oxo-1,2-dihydroquinolin-8-yl)ethyl)amino)methyl)-2-oxooxazolidin-3-yl)-2H-pyrazino[2,3-b][1,4]oxazin-3(4H)-one], the IC50 [1] is reported as 4.6 nM, the MIC ATCC25922 ([2]; E. coli reference strain ATCC25922, no unit in this line (MIC50/MIC90 lines: μg/ml)) is reported as 0.06 µg/mL (≈ 0.128 µM) and the MIC50 ([2]; Escherichia coli) is reported as 0.06 µg/mL (≈ 0.128 µM). For the same compound, the MIC90 ([2]; Escherichia coli) was 0.25 µg/mL (≈ 0.534 µM), the Minimum ([2]; lowest MIC among E. coli clinical strains (201 strains; Example 15: 176), no unit in this line) was 0.03 and the MIC ATCC13883 ([3]; K. pneumoniae reference strain ATCC13883, no unit in this line) was 0.03 µg/mL (≈ 0.064 µM). For the same compound, the MIC50 ([3]; Klebsiella pneumoniae) was 0.5 µg/mL (≈ 1.07 µM), the MIC90 ([3]; Klebsiella pneumoniae) was 1 µg/mL (≈ 2.13 µM) and the Minimum ([3]; lowest MIC among K. pneumoniae clinical strains (211 strains; Example 15: 176), no unit in this line) was 0.06. The “MEAN ± SD (Log 10 CFU/g Lung)” value ([4]; 10 mg/kg, i.v. 1 h infusion) was 6.63 ± 0.15 Log 10 CFU/g Lung, the “Mean Log 10CFU/g lung reduction (wrt 4 h PI control 5.78 Log10CFU/g lung)” value (“Mean Log 10CFU/g lung reduction” below) ([4]; 10 mg/kg, i.v. 1 h infusion) was −0.85 Log10CFU/g lung and the “MEAN ± SD (Log 10 CFU/g Lung)” value ([4]; 30 mg/kg, i.v., 1 h infusion) was 4.74 ± 0.08 Log 10 CFU/g Lung. The “Mean Log 10CFU/g lung reduction” value ([4]; 30 mg/kg, i.v., 1 h infusion) was 1.04 Log10CFU/g lung, the “MEAN ± SD (Log 10 CFU/g Lung)” value ([4]; 100 mg/kg, i.v., 1 h infusion) was 4.76 ± 0.2 Log 10 CFU/g Lung and the “Mean Log 10CFU/g lung reduction” value ([4]; 100 mg/kg, i.v., 1 h infusion) was 1.02 Log10CFU/g lung. For the same compound, the “Log 10 CFU/g Lung” value ([4]; 10 mg/g, i.v. 1 h infusion) was 6.68 Log 10 CFU/g Lung and 6.75 Log 10 CFU/g Lung and 6.47 Log 10 CFU/g Lung, the “Log 10 CFU/g Lung” value ([4]; 30 mg/kg, i.v., 1 h infusion) was 4.79 Log 10 CFU/g Lung and 4.65 Log 10 CFU/g Lung and 4.78 Log 10 CFU/g Lung and the “Log 10 CFU/g Lung” value ([4]; 100 mg/kg, i.v., 1 h infusion) was 4.84 Log 10 CFU/g Lung and 4.53 Log 10 CFU/g Lung and 4.90 Log 10 CFU/g Lung. For the same compound, the “efficacy compared to the early infection control (in words)” value ([4]; rat lung model, 10 mg/kg) was “bacteriostatic”, the “efficacy with respect to early infection control (in words)” value ([4]; rat lung model, 30 mg/kg and 100 mg/kg) was “significant efficacy” and the “efficacy versus standard drug (in words)” value ([4]; rat lung model, similar dose (30 mg/kg)) was “comparable to standard drug meropenem”. The “IV formulation stable at room temperature” value [5] was “more than 24 hours”, the MIC [6] was 0.06 µg/mL (≈ 0.128 µM) and the MIC [7] was at most 0.015 µg/mL. It also gave an MIC [8] of 0.03 µg/mL (≈ 0.064 µM), an MIC [9] of 0.03 µg/mL (≈ 0.064 µM) and an MIC [10] of 0.25 µg/mL (≈ 0.534 µM).
